We go through 3 compounds from patent US20090155272A1, “Targeted pharmaceuticals and ligands” (priority 2005, published 2009).

One data set concerns α-DG. The data set is described as follows: Immunoprecipitation of the DG complex after furin inhibitor treatment. The format is cell-based. The note with it: EpH4, MDA-MB-231 and MDA-MB-468 cells.
In another data set the test system is known metalloproteases. The note with it: 50 μM; cited from earlier work.
Data set [1] relates to BT474 and MDA-MB-231 cells. The settings on record: 50 μM, extended periods of time; cited from earlier work.
The next data set deals with β-DG. Nature of the data set: Metalloprotease-dependent shedding and cleavage of dystroglycan in cultured cells (immunoblot). The format is cell-based. The note with it: incubation of the cells with inhibitor. On the procedure: FIG. 6A-B depicts a modification of dystroglycan by metalloprotease activity. (A) Structure of α-DG and β-DG. α-DG associates non-covalently with β-DG, which spans the plasma membrane. O-linked glycosylation is shown as a chain of circles of varying length, whereas N-linked glycosylation is shown as branches. (B) Immunoblot analysis of α-DG and β-DG levels in cell lines cultured in the presence or absence of the MP inhibitor BB-2516. Cells were cultured in serum-free medium for two days with or without BB-2516 and then total cellular proteins were extracted and subjected to immunoblot analysis of α-DG and β-DG.
To confirm that metalloprotease activity is indeed blocked by the GM6001, the cleavage of known molecules is monitored. Using identically treated cell populations, proteins are extracted and analyzed by immunoblot. These controls include detecting the cleavage of the β-DG subunit, which is evidenced by a shift in the molecular mass of this protein from 43 kDa to 31 kDa in MDA-MB-231 cells using an antibody binding the β-DG cytoplasmic domain (see FIG. 6).
For example, metalloprotease cleavage events are responsible for the shedding of β-DG from the cell surface, and for direct cleavage of the extracellular domain of β-DG, which is detected by the reduction in the molecular mass of β-DG from 43 kD to 31 kD. Both the shedding of β-DG, and the cleavage of β-DG are blocked by the incubation of the cells with the broad-spectrum MMP inhibitors GM6001 or BB2516. Detection of the cleaved form of p-DG can be completely eliminated after just 24 hours exposure to the MMP inhibitor.

Peptide text beside a SMILES is read from it. * marks the point of attachment. Decanoyl = CCCCCCCCCC(=O)*; CH2Cl = ClC*

For `CCCCCCCCCC(=O)N[C@@H](CCCN=C(N)N)C(=O)N[C@H](C(=O)N[C@@H](CCCCN)C(=O)N[C@@H](CCCN=C(N)N)C(=O)CCl)C(C)C` [CMK] (Decanoyl-RVKR-CH2Cl), the α-DG band position entry in the data set with α-DG was “shifted upward in all cells”.

In the case of `CNC(=O)[C@H](Cc1c[nH]c2ccccc12)NC(=O)[C@@H](CC(=O)NO)CC(C)C` [GM6001], in the data set with known metalloproteases, the “block of activity of known metalloproteases” value is “more than sufficient to block the activity of known metalloproteases”. The “cell viability on extended exposure” value in data set [1] is on record as “without loss of cell viability”. Besides, in the data set on β-DG, the “cleavage of β-DG (43 kD to 31 kD)” value is “blocked” and the “shedding of β-DG from the cell surface” value was “blocked”.

Take `CNC(=O)[C@@H](NC(=O)[C@H](CC(C)C)[C@H](O)C(=O)NO)C(C)(C)C` [BB2516]: in the data set with β-DG, the “cleavage of β-DG (43 kD to 31 kD)” value is “blocked” and the “shedding of β-DG from the cell surface” value is “blocked”.
